The assay concerns L1210 cells. The experiment in a line: Nucleoside transport inhibition assay: inhibition of 3H-thymidine uptake, with or without AGP or HSA. Type of assay: cell-based, murine. The following applies: for inhibition at 10 µM: L1210, 10 μM compound; for inhibition at 100 µM: L1210, 100 μM compound; for inhibition at 1 µM: L1210, 1 μM compound; for inhibition at 50 µM: L1210, 50 μM compound; for Effect of AGP on the inhibition of thymidine uptake: in words. The procedure: In vitro activity. […] For testing the compounds an established nucleoside transport assay involving measurement of thymidine uptake was adapted. Murine leukaemia L1210 cells were used in this assay as their nucleoside transport characteristics are well known. This assay for measuring thymidine uptake used a modification of the rapid mixing technique of Wohleheuter, R. […] Materials used included a transport buffer comprising 130 mM NaCl, 5 mM KC1, 1 mM MgCl, 5 mM NaH2 PO4, 10 mM glucose and 10 mM HEPES. This buffer was made up as sterile 5× concentrate and reconstituted in distilled water and adjusted to pH 7.4 immediately prior to carrying out the assay. […] The supernatant was aspirated and the cells were washed with ice-cold transport buffer and centrifuged again at 1000 rpm for 5 minutes at 4° C. The supernatant was removed and the cells were resuspended in ice-cold transport buffer to give a final cell density of 2-4×10^7 cells/mi. Cells were left on ice for 30 minutes recovery prior to starting the assay. […] The suspension was mixed well and 100 μl was layered onto 150 μl silicone oil (9:11 Dow Corning 556 (Sp.Gr. 0.98):Dow Corning 550 (Sp.Gr. 1.068) (final Sp.Gr. 1.028) overlaying 50 μl 3M KOH in 6 replicate 0.5 ml microfuge tubes. […] The tubes were immediately transferred to a microfuge (Eppendorf) and spun at 12000 rpm for 2 minutes to pellet the cells through the oil and into the KOH. The tubes were capped and the cells left to solubilise in the KOH for 1 hour. Cell number and viability for each run was determined by haemocytometer counting using trypan blue exclusion. […] The tubes were capped and cut in the oil layer such that the bottom portion (cells solubilised in KOH) fell into a 20 ml scintillation vial. 1 ml 0.25M acetic acid followed by 1 ml air was injected into the tube using a 2 ml syringe and 23-gauge needle to disperse and neutralise the KOH-solubilisedcells. 10 ml of Optiphase HiSafe™ scintillant was added and the vials capped and shaken. […] The [^14 C]:[^3 H] ratio was used to calculate the amount of non-transported contaminating [^3 H]thymidine in the extracellular space.

The mark [1] stands for this setting: Mus musculus, no AGP, read-out: % Inhibition of 3H-thymidine uptake, No AGP.
Where [2] appears, read: Mus musculus, no AGP, 5% DMSO, read-out: % Inhibition of 3H-thymidine uptake, No AGP (5% DMSO).
Where [3] appears, read: 50 μM compound, no AGP, 5% DMSO, 50 µM.
Setting [4] is: Mus musculus, +5 mg/ml AGP vs no AGP, read-out: % Reduction (of inhibition by AGP).
Setting [5] is: Mus musculus, +5 mg/ml AGP, read-out: % Inhibition of 3H-thymidine uptake, +5 mg/ml AGP.

This note sets out measurements from patent publication US6297250A, “Pyrimidopyrimidine compounds” (Newcastle University Ventures Limited, priority 1997, dated 2001).

One may read the IC50 as the point on the concentration scale where inhibition reaches its midpoint. Low readings indicate higher potency, high ones lower potency.

Where “and” joins values, the source holds several entries; their conditions need not be identical. Equal entries are not always repeated. Where two headings read alike, the source gives them in different places.

As for `CCCOc1nc(N2CCCCC2)c2nc(OCCC)nc(N3CCCCC3)c2n1` [NU3064, 2,6-Di(n)propoxy-4,8-dipiperidinopyrimidopyrimidine], under setting [1], the inhibition at 10 µM is 37 ± 11% and the inhibition at 100 µM stood at 60 ± 9%. Where the note is “Mus musculus, L1210, no AGP”, this molecule came in with an IC50 of 52000 nM.

For the molecule `CCOC(C)(COc1nc(N2CCCCC2)c2nc(OCC(C)(OCC)OCC)nc(N3CCCCC3)c2n1)OCC` [NU3065, 2,6-bis(2',2'-Diethylacetal-1-propoxy)-4,8-dipiperidinopyrimidopyrimidine], under setting [1], the inhibition at 1 µM was 30 ± 7%, the inhibition at 10 µM came to 65 ± 9% and the inhibition at 100 µM was 82 ± 16%. This molecule also came in with an IC50 (Mus musculus, L1210, no AGP) of 4240 nM.

On to `CC(=O)COc1nc(N2CCCCC2)c2nc(OCC(C)=O)nc(N3CCCCC3)c2n1` [NU3066, 2,6-Di(-2-oxopropoxy)-4,8-dipiperidinopyrimidopyrimidine], for which, under setting [2], the inhibition at 10 µM came to 58 ± 3%.

Consider `COc1nc(N2CCCCC2)c2nc(OC)nc(N3CCCCC3)c2n1` [NU3067, 2,6-Dimethoxy-4,8-dipiperidinopyrimidopyrimidine], for which, under setting [3], the “% Inhibition of 3H-thymidine uptake, No AGP (5% DMSO)” value (from here on “% Inhibition … No AGP (5% DMSO)”) worked out at 76%. Further, the inhibition at 10 µM under setting [2] worked out at 39 ± 7%. Moreover, the inhibition at 50 µM (Mus musculus, no AGP, 5% DMSO) was determined as 81%.

For the molecule `CCOc1nc(N2CCCCC2)c2nc(OCC)nc(N3CCCCC3)c2n1` [NU3068, 2,6-Diethoxy-4,8-dipiperidinopyrimidopyrimidine], the “% Inhibition … No AGP (5% DMSO)” value under setting [3] was determined as 65%. Also, the inhibition at 10 µM under setting [2] was 35 ± 4%. Further, the inhibition at 50 µM (Mus musculus, no AGP, 5% DMSO) turned out to be 74%.

On to `CC(C)Oc1nc(N2CCCCC2)c2nc(OC(C)C)nc(N3CCCCC3)c2n1` [NU3069, 2,6-Di-iso-propoxy-4,8-dipiperidinopyrimidopyrimidine], for which, under setting [2], the inhibition at 10 µM worked out at 23 ± 12% and the inhibition at 100 µM was 64 ± 6%.

As to `CC(C)CCOc1nc(N2CCCCC2)c2nc(OCCC(C)C)nc(N3CCCCC3)c2n1` [NU3070, 2,6-Di-(3'-methylbutoxy)-4,8-dipiperidinopyrimidopyrimidine], the “% Inhibition … No AGP (5% DMSO)” value (10 μM compound, no AGP, 5% DMSO, 10 µM) stood at 51%. For the same molecule, the inhibition at 10 µM under setting [2] is 46%.

With `CC(C)COc1nc(N2CCCCC2)c2nc(OCC(C)C)nc(N3CCCCC3)c2n1` [NU3071, 2,6-Di-(2'-methylpropoxy)-4,8-dipiperidinopyrimidopyrimidine], under setting [2], the inhibition at 10 µM was determined as 25 ± 4% and the inhibition at 100 µM came out at 65 ± 4%.

For `C=CCOc1nc(N2CCCCC2)c2nc(OCC=C)nc(N3CCCCC3)c2n1` [NU3072, 2,6-Di-allyloxy-4,8-dipiperidinopyrimidopyrimidine], the “% Inhibition … No AGP (5% DMSO)” value (100 μM compound, no AGP, 5% DMSO, 100 µM) amounted to 63%. Under setting [2], the inhibition at 10 µM came to 52 ± 7% and the inhibition at 100 µM turned out to be 66%.

With `COCC(C)Oc1nc(N2CCCCC2)c2nc(OC(C)COC)nc(N3CCCCC3)c2n1` (stereo not shown) [NU3074, 2,6-Di(1'-methoxy-2'-methyl)ethoxy-4,8-dipiperidinopyrimidopyrimidine], under setting [1], the inhibition at 10 µM amounted to 62 ± 10% and the inhibition at 100 µM was 96 ± 7%.

Consider `CC(O)COc1nc(N2CCCCC2)c2nc(OCC(C)O)nc(N3CCCCC3)c2n1` (stereo not shown) [NU3077, 2,6-Di(2'-hydroxypropoxy)-4,8-dipiperidinopyrimidopyrimidine], for which the “Effect of AGP on the inhibition of thymidine uptake” value is listed as “no significant reduction”. Moreover, the “% Inhibition of 3H-thymidine uptake, No AGP” value (1 μM compound, no AGP, 1 µM) stood at 44 ± 8%. Moreover, under setting [4], the inhibition at 1 µM was 55% and the inhibition at 10 µM is 25%. Also, under setting [5], the inhibition at 1 µM was found to be 20 ± 10% and the inhibition at 10 µM worked out at 69 ± 9%. Also, under setting [1], the inhibition at 1 µM is 47 ± 8% and the inhibition at 10 µM was found to be 92 ± 10%. For the same molecule, the IC50 (Mus musculus, L1210, no AGP) came to 900 nM. Also, the IC50 (no AGP) was determined as 1130 nM.

For `CC1(C)OC[C@@H](COc2nc(NCc3ccccc3)c3nc(OC[C@@H]4COC(C)(C)O4)nc(NCc4ccccc4)c3n2)O1` [NU3078, (R,R)-2,6-bis(2',2'-Dimethyl-1',3'-dioxolane-4'-methoxy)-4,8-dibenzylamino pyrimidopyrimidine], for the setting “10 μM compound, no AGP”, the “% Inhibition of 3H-thymidine uptake, No AGP” value is reported as 46 ± 3%.

With `OCCN(CCO)c1nc(NCc2ccc(C(F)(F)F)cc2)c2nc(N(CCO)CCO)nc(NCc3ccc(C(F)(F)F)cc3)c2n1` [NU3079, 2,6-bis(Diethanolamino)-4,8-di[(4'-trifluoromethylbenzyl)amino]pyrimido pyrimidine], under setting [1], the inhibition at 1 µM worked out at 32 ± 11% and the inhibition at 10 µM is 60 ± 7%.

With `OCCN(CCO)c1nc(N2CCc3ccccc3C2)c2nc(N(CCO)CCO)nc(N3CCc4ccccc4C3)c2n1` [NU3080, 2,6-bis-Diethanolamino-4,8-di-(N-1,2,3,4-tetrahydroisoquinolyl)pyrimidopyrimidine], the inhibition at 1 µM under setting [1] stood at 72 ± 22%. The inhibition at 10 µM is 31% under setting [4], 69% under setting [5] and 100% under setting [1]. This molecule came in with an IC50 (Mus musculus, L1210, no AGP) of 720 ± 380 nM.

Take `COc1ccc(CNc2nc(N(CCO)CCO)nc3c(NCc4ccc(OC)c(OC)c4)nc(Cl)nc23)cc1OC` [NU3081, 2-chloro-6-diethanolamino-4,8-bis[(3',4'-dimethoxybenzyl)amino]pyrimidopyrimidine]: under setting [1], the inhibition at 1 µM stood at 59 ± 2% and the inhibition at 10 µM was determined as 95 ± 9%. Besides, for the setting “Mus musculus, L1210, no AGP”, half-maximal inhibition (IC50) required 710 nM.

On to `OCCN(CCO)c1nc(N2CCc3ccccc3C2)c2nc(Cl)nc(N3CCc4ccccc4C3)c2n1` [NU3082, 2-Chloro-6-diethanolamino-4,8-di-(N-1,2,3,4-tetrahydroisoguinolyl)pyrimidopyrimidine], for which, under “1 μM compound, no AGP, 1 µM”, the “% Inhibition of 3H-thymidine uptake, No AGP” value is 9% and 0%. Moreover, the inhibition at 10 µM under setting [1] worked out at 22 ± 14%.

For `OCCN(CCO)c1nc(NCc2ccc(Cl)cc2)c2nc(N(CCO)CCO)nc(NCc3ccc(Cl)cc3)c2n1` [NU3083, 2,6-bis(Diethanolamino)-4,8-di[(4'-chlorobenzyl)amino]pyrimido pyrimidine], under setting [1], the inhibition at 1 µM worked out at 53 ± 15% and the inhibition at 10 µM was found to be 92 ± 14%. For the same molecule, 1110 nM corresponded to half-maximal inhibition (Mus musculus, L1210, no AGP) (IC50).

As for `COc1ccc(CNc2nc(N(CCO)CCO)nc3c(NCc4ccc(OC)c(OC)c4)nc(N(CCO)CCO)nc23)cc1OC` [NU3084, 2,6-bis(Diethanolamino)-4,8-bis[(3',4'-dimethoxybenzyl)amino]pyrimidopyrimidine], the “Effect of AGP on the inhibition of thymidine uptake” value was “no significant reduction”. The “% Inhibition of 3H-thymidine uptake, No AGP” value (1 μM compound, no AGP, 1 µM) amounted to 67 ± 10%. Under setting [4], the inhibition at 1 µM was 4% and the inhibition at 10 µM came to 5%. Besides, under setting [5], the inhibition at 1 µM is 64 ± 3% and the inhibition at 10 µM was 93 ± 10%. Also, under setting [1], the inhibition at 1 µM was determined as 74 ± 16% and the inhibition at 10 µM turned out to be 98 ± 5%. This molecule also gave an IC50 (Mus musculus, L1210, no AGP) of 250 nM. Besides, the “Potency as inhibitor relative to dipyridamole” value (presence and absence of AGP, or of 40 mg/ml human serum albumin) is on record as “more potent inhibitors than dipyridamole”.

Regarding `OCCCOc1nc(N2CCCCC2)c2nc(OCCCO)nc(N3CCCCC3)c2n1` [NU3085, 2,6-Di(3'-hydroxypropoxy)-4,8-dipiperidinopyrimidopyrimidine], the “% Inhibition of 3H-thymidine uptake, No AGP” value (10 μM compound, no AGP, 10 µM) was 100% and 76%. Further, under setting [1], the inhibition at 1 µM worked out at 35 ± 5%. This molecule also registered an IC50 (Mus musculus, L1210, no AGP) of 2360 nM.
